Assays:
ciliary artery = experiment: Ciliary artery contraction, myograph method (tissue ring contracted with angiotensin II); design: species or system pig
Description: For the myographic determinations, a short segment (7-8 mm) of the ciliary arteries of fresh eyes, e.g. pig's eyes, is dissected and cut into small rings of thickness 2 mm under a microscope (cf. for this K. Yao et al. Invest. Ophthalmaol. Vis. Sci. 32, 1791-1798(1991) and M. J. Mulvany, W. Halpern Circ. res. 41, 19-26(1977)). During the preparation, the tissue is immersed in modified Krebs-Ringer bicarbonate solution. These rings (diameter about 200-400 μm) are installed in the myograph system without delay. Such a tissue ring is stretched using two tungsten wires (diameters 30 and 80 μm), the wires being passed through the lumen. One wire is connected to the power transmission, the other to a micromanipulator for adjustment of muscle length. The tissue ring is immersed in a control solution during the experiment (37°; 95% O2; 5% CO2; pH=7.4) and equilibrated for 45 minutes before testing.
The tissue ring is stretched stepwise and at the same time 100 mM KCl is added in each case. The optimum passive tension is then defined as the tension at which the contraction with 100 mM KCl is greatest. For ciliary arteries, an averaged value for the tension of 977 mg±60 mg is found. The active residual tone of this tissue is defmed as the difference between the optimum passive tension and the tension after a maximum relaxation with 10^-6 molar bradykinin. The corresponding tension is 174 mg±38 mg. In all subsequent experiments, the abovementioned tissue rings are slowly stretched at 100 mg intervals until the optimum is reached.
Before the actual experiment, the endothelial function of such a tissue ring is checked for intactness. The tissue rings are challenged to contract by using 3. 10^-7 molar serotonin solution and in the experimental procedure described above. Thereafter it is checked whether a complete relaxation of the contracted tissue ring occurs with 3. 10^-7 molar bradykinin solution. If this condition is fulfilled, the tissue is held to be intact.
Determination of the ciliary artery contraction using the myograph method
After it was verified as described above that the endothelial functions of a tissue ring of a ciliary artery are intact, the tissue ring preparation is incubated (contracted) with 10^-7 M angiotensin II, and then relaxed with various doses of the angiotensin II antagonist valsartan.

[1] = system: perfused isolated pig's eye; experiment: Ophthalmic flow in the perfused isolated pig's eye
Method: For the perfusion method on the isolated pig's eye, the fatty tissue which surrounds the extraocular muscles is carefully removed. During this preparation, the ocular globe is surrounded with modified Krebs-Ringer bicarbonate solution at 4° C. The ocular globe is then cannulated under the microscope using a polyethylene cannula (600 μm diameter), namely via the common ophthalmic artery.
Following this preparation, the ocular globe is connected via the polyethylene cannula to a Langendorff perfusion system, and in this way supplied at the latest 1 hour after the start of preparation with a filtered and oxygenated Krebs solution which contains 0.5% albumin.
The catheterization of the common ophthalmic artery guarantees the complete perfusion both of the choroidal and of the retinal tissue and of the small extraocular muscular arteries. The perfused ocular globe is immersed in a thermostated (37° C.) control bath with a glass jacket with the cornea pointed downwards. The overflow rate (ml/min) in the bath corresponds to the ophthalmic flow. Before testing a composition, the ocular globe is equilibrated for 20 minutes. In a control experiment, it is shown that the ophthalmic flow in the experimental procedure selected remains constant for about 120 minutes after the start of the perfusion. All tests are therefore carried out within this time frame.
A perfused isolated pig's eye is first treated as described above with a control solution and then with a solution comprising angiotensin II (10^-6 M). After the determination of the angiotensin II effect, valsartan (10^-5 M) is additionally added on top of the above exposure. The relative ophthalmic flow rate resulting in this way is shown below.

Compound	Relative contraction in comparison to 100 mM KCl (ciliary artery; ciliary artery ring contracted with 10^-7 M angiotensin II, valsartan 10^-5 M)	Relative contraction in comparison to 100 mM KCl (ciliary artery; ciliary artery ring contracted with 10^-7 M angiotensin II, valsartan 10^-6 M)	Relative contraction in comparison to 100 mM KCl (ciliary artery; ciliary artery ring contracted with 10^-7 M angiotensin II, valsartan 10^-7 M)	Relative contraction in comparison to 100 mM KCl (ciliary artery; ciliary artery ring contracted with 10^-7 M angiotensin II, valsartan 10^-8 M)	Relative contraction in comparison to 100 mM KCl (ciliary artery; ciliary artery ring contracted with 10^-7 M angiotensin II, valsartan 10^-9 M)	Contracting effect of angiotensin II on the ciliary artery (ciliary artery; valsartan added after 10^-7 M angiotensin II)	Decrease in the relative ophthalmic flow ([1]; angiotensin II 10^-6 M plus valsartan 10^-5 M)	Blood flow-decreasing action of angiotensin II ([1]; valsartan 10^-5 M on top of angiotensin II 10^-6 M)	Relative contraction in comparison to 100 mM KCl (ciliary artery; 10^-7 M angiotensin II alone, no valsartan (pure angiotensin II effect))	Decrease in the relative ophthalmic flow ([1]; angiotensin II 10^-6 M alone)
CCCCC(=O)N(Cc1ccc(-c2ccccc2-c2nn[nH]n2)cc1)[C@H](C(=O)O)C(C)C [valsartan]	0.9 ± 0.45%	0.93 ± 0.4%	5.15 ± 1.6%	8.1 ± 1.5%	18.7 ± 2.2%	quantitatively abolished	6.82 ± 3.02%	strongly reduced		
Angiotensin II: contracting agonist used to contract the ciliary artery and decrease ophthalmic flow (DRVYIHPF; Angiotensin-2; UniProt P01019 25-32, looked up)									27.9 ± 8.7%	24.5 ± 3.05%

Source: patent US5889020A, “Treatment of normotensive glaucoma with angiotensin II antagonists” (CIBA Vision Corporation, priority 1994, dated 1999)
